Reference: US20250017906A1, “COMPOUNDS FOR USE IN TREATING GASTRIC CANCER” (BPGBio, Inc., priority 2021, published 2025)
“Also recorded” adds a separate entry of the source.

Assays:
[1] = Tolerability (body weight, survival) in HS746T xenograft study; type: in vivo; details: HS746T xenograft, 75, 100 and 150 mg/kg oral BID, 15 days
Experimental: Hs 746T cell line is a gastric carcinoma epithelial cell type from stomach that were isolated from the metastatic site of left leg muscle. Hs 746T cell lines were implanted subcutaneously in nude mice. Tumors were allowed to grow. Once the average tumor volume reached the volume of 120 mm3, animals were randomized into four groups of vehicle control, 75 mg/kg, 100 mg/kg, and 150 mg/kg 2-(difluoromethoxy)-N-[[5-(2-methoxyphenyl)-1H-1,2,4-triazol-3-yl]methyl]benzamide with 10 animals per group. Methocel E3 Premium LV with 2% labrasol in Milli-Q water was used for vehicle control. 2-(difluoromethoxy)-N-[[5-(2-methoxyphenyl)-1H-1,2,4-triazol-3-yl]methyl]benzamide was prepared prior to each dosing in 2% labrasol dissolved in Milli-Q water. […] For each individual animal of vehicle group TGI % was calculated based on the tumor growth inhibition of individual tumor at each given day of the study compared to the average of the group for that given day of the study. The P value was calculated for each group that was treated with 2-(difluoromethoxy)-N-[[5-(2-methoxyphenyl)-1H-1,2,4-triazol-3-yl]methyl]benzamide for each given day of the study by comparing the TGI of that day to the TGI of the vehicle group. […] P value was calculated by excel program using two-tailed distribution and two-sample equal variance (homoscedastic). ns P>0.05; * P<0.05; ** P<0.01; *** P<0.001; **** P<0.0001.

[2] = Tolerability (body weight, survival) in SNU-5 xenograft study; type: in vivo; details: oral BID, solid dispersion
Experimental: SNU-5 cell lines were implanted subcutaneously in nude mice. Tumors were allowed to grow. Once the average tumor volume reached the volume of 122 mm3, animals were randomized into three groups of vehicle control, 75 mg/kg and 150 mg/kg 2-(difluoromethoxy)-N-[[5-(2-methoxyphenyl)-1H-1,2,4-triazol-3-yl]methyl]benzamide with 12 animals per group. Methocel E3 Premium LV in Milli-Q water was used for vehicle control. A solid dispersion of 2-(difluoromethoxy)-N-[[5-(2-methoxyphenyl)-1H-1,2,4-triazol-3-yl]methyl]benzamide was prepared prior to each dosing in Milli-Q water. […] The percentage of tumor growth inhibition (TGI %) was calculated for each individual tumor. […] For each individual animal of vehicle group TGI % was calculated based on the tumor growth inhibition of individual tumor at each given day of the study compared to the average of the group for that given day of the study. The P value was calculated for each group that was treated with 2-(difluoromethoxy)-N-[[5-(2-methoxyphenyl)-1H-1,2,4-triazol-3-yl]methyl]benzamide for each given day of the study by comparing the TGI of that day to the TGI of the vehicle group. […] P value was calculated by excel program using two-tailed distribution and two-sample equal variance (homoscedastic). ns P>0.05; * P<0.05; ** P<0.01; *** P<0.001; **** P<0.0001.

[3] = tested on: cyclin B1(CCNB1) and phospho histone H3(pHH3); experiment: Level of cyclin B1 and phospho histone H3 in HS746T xenograft tumors; type: in vivo, nude mice; details: 75-150 mg/kg (FIG. 2)
[4] = tested on: cyclin B1 and phosphor histone H3; experiment: Level of cyclin B1 and phospho histone H3 in SNU-5 xenograft tumors; type: in vivo, nude mice; details: 75 and 150 mg/kg (FIG. 4)
[5] = molecular target: T1, UBE2K (Homo sapiens, UniProt P61086); details: poly-ubiquitination assays, FIG. 2 of U.S. Pat. No. 11,091,447; cited from earlier work
T1 sequence (P61086 1-200): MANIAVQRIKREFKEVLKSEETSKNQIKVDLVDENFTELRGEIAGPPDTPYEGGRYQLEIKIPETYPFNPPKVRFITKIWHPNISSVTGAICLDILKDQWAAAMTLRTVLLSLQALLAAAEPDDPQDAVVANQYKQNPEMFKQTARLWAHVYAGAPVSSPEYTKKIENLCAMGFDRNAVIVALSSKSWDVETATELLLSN

[6] = tested on: SNU5 tumors; experiment: Gastric carcinoma xenograft model: SNU-5 tumors in nude mice, tumor growth inhibition; type: in vivo; details: SNU-5 xenograft
Experimental: SNU-5 is derived from ascites of a patient with poorly differentiated carcinoma of the stomach. The patient had previously received chemotherapy including 5-fluorouracil, doxorubicin and mitomycin-C. This cell line is derived from metastatic site, ascites.
SNU-5 cell lines were implanted subcutaneously in nude mice. Tumors were allowed to grow. Once the average tumor volume reached the volume of 122 mm3, animals were randomized into three groups of vehicle control, 75 mg/kg and 150 mg/kg 2-(difluoromethoxy)-N-[[5-(2-methoxyphenyl)-1H-1,2,4-triazol-3-yl]methyl]benzamide with 12 animals per group. Methocel E3 Premium LV in Milli-Q water was used for vehicle control. A solid dispersion of 2-(difluoromethoxy)-N-[[5-(2-methoxyphenyl)-1H-1,2,4-triazol-3-yl]methyl]benzamide was prepared prior to each dosing in Milli-Q water. 2-(difluoromethoxy)-N-[[5-(2-methoxyphenyl)-1H-1,2,4-triazol-3-yl]methyl]benzamide was administered by oral gavage two times a day (BID). In this study there were 12 animals per each group. […] Animals that left the study prior to day 23 were eliminated from all calculations. The percentage of tumor growth inhibition (TGI %) was calculated for each individual tumor. The mean tumor volume of each group over time and the growth of tumor in each individual animal is plotted below. For each individual animal of vehicle group TGI % was calculated based on the tumor growth inhibition of individual tumor at each given day of the study compared to the average of the group for that given day of the study. The P value was calculated for each group that was treated with 2-(difluoromethoxy)-N-[[5-(2-methoxyphenyl)-1H-1,2,4-triazol-3-yl]methyl]benzamide for each given day of the study by comparing the TGI of that day to the TGI of the vehicle group. This P value is different than what is provided in the CRO report which is the P value related to tumor volume not TGI %. P value was calculated by excel program using two-tailed distribution and two-sample equal variance (homoscedastic). ns P>0.05; * P<0.05; ** P<0.01; *** P<0.001; **** P<0.0001.

[7] = tested on: HS746T tumors; experiment: Gastric carcinoma xenograft model: Hs 746T tumors in nude mice, tumor growth inhibition; type: in vivo; details: for % Tumor Growth Inhibition (% TGI) / tumor growth inhibition, mixed effect linear model of the tumor volumes on the last day of study: HS746T xenograft
Experimental: Hs 746T cell line is a gastric carcinoma epithelial cell type from stomach that were isolated from the metastatic site of left leg muscle. Hs 746T cell lines were implanted subcutaneously in nude mice. Tumors were allowed to grow. Once the average tumor volume reached the volume of 120 mm3, animals were randomized into four groups of vehicle control, 75 mg/kg, 100 mg/kg, and 150 mg/kg 2-(difluoromethoxy)-N-[[5-(2-methoxyphenyl)-1H-1,2,4-triazol-3-yl]methyl]benzamide with 10 animals per group. Methocel E3 Premium LV with 2% labrasol in Milli-Q water was used for vehicle control. 2-(difluoromethoxy)-N-[[5-(2-methoxyphenyl)-1H-1,2,4-triazol-3-yl]methyl]benzamide was prepared prior to each dosing in 2% labrasol dissolved in Milli-Q water. 2-(difluoromethoxy)-N-[[5-(2-methoxyphenyl)-1H-1,2,4-triazol-3-yl]methyl]benzamide was administered by oral gavage two times a day (BID). In this study there were 10 animals per each group. […] The mean tumor volume of each group over time and the growth of tumor in each individual animal is plotted below. For each individual animal of vehicle group TGI % was calculated based on the tumor growth inhibition of individual tumor at each given day of the study compared to the average of the group for that given day of the study. The P value was calculated for each group that was treated with 2-(difluoromethoxy)-N-[[5-(2-methoxyphenyl)-1H-1,2,4-triazol-3-yl]methyl]benzamide for each given day of the study by comparing the TGI of that day to the TGI of the vehicle group. This P value is different than what is provided in the CRO report which is the P value related to tumor volume not TGI %. P value was calculated by excel program using two-tailed distribution and two-sample equal variance (homoscedastic). ns P>0.05; * P<0.05; ** P<0.01; *** P<0.001; **** P<0.0001.

## COc1ccccc1-c1nc(CNC(=O)c2ccccc2OC(F)F)n[nH]1 [2-(difluoromethoxy)-N-[[5-(2-methoxyphenyl)-1H-1,2,4-triazol-3-yl]methyl]benzamide]
[1]
  effect on body weight: without any significant effect on body weight
[2]
  effect on body weight: without any significant effect on body weight
[3]
  cyclinB1 in tumor tissues: dose-dependent increase
  phosphor histone H3 in tumor tissues: dose-dependent increase
[4]
  cyclin B1 in tumor tissues: dose dependent increase; also recorded: dose-dependent increase
  phosphor histone H3 in tumor tissues: dose dependent increase; also recorded: dose-dependent increase
[5]
  effect on mono-ubiquitinated UBE2K: stabilize mono-ubiquitinated UBE2K
[6]; 75 mg/kg oral BID, day 2
  % Tumor Growth Inhibition (% TGI): 79%
[6]; 75 mg/kg oral BID, day 5
  % Tumor Growth Inhibition (% TGI): 41%
[6]; 75 mg/kg oral BID, day 7
  % Tumor Growth Inhibition (% TGI): 36%
[6]; 75 mg/kg oral BID, day 9
  % Tumor Growth Inhibition (% TGI): 49%
[6]; 75 mg/kg oral BID, day 12
  % Tumor Growth Inhibition (% TGI): 51%
[6]; 75 mg/kg oral BID, day 14
  % Tumor Growth Inhibition (% TGI): 47%
[6]; 75 mg/kg oral BID, day 16
  % Tumor Growth Inhibition (% TGI): 56%
[6]; 75 mg/kg oral BID, day 19
  % Tumor Growth Inhibition (% TGI): 47%
[6]; 75 mg/kg oral BID, day 21
  % Tumor Growth Inhibition (% TGI): 40%
[6]; 150 mg/kg oral BID (FIG. 3)
  tumor growth inhibition: 64%
[6]; 150 mg/kg oral BID, day 2
  % Tumor Growth Inhibition (% TGI): 129%
[6]; 150 mg/kg oral BID, day 5
  % Tumor Growth Inhibition (% TGI): 70%
[6]; 150 mg/kg oral BID, day 7
  % Tumor Growth Inhibition (% TGI): 58%
[6]; 150 mg/kg oral BID, day 9
  % Tumor Growth Inhibition (% TGI): 64%
[6]; 150 mg/kg oral BID, day 12
  % Tumor Growth Inhibition (% TGI): 63%
[6]; 150 mg/kg oral BID, day 14
  % Tumor Growth Inhibition (% TGI): 54%
[6]; 150 mg/kg oral BID, day 16
  % Tumor Growth Inhibition (% TGI): 64%
[6]; 150 mg/kg oral BID, day 19
  % Tumor Growth Inhibition (% TGI): 52%
[6]; 150 mg/kg oral BID, day 21
  % Tumor Growth Inhibition (% TGI): 49%
[7]; 150 mg/kg in nude mice (summary, FIG. 1)
  HS746T tumor growth inhibition (TGI): more than 70%
[7]; 75 mg/kg oral BID, day 3
  % Tumor Growth Inhibition (% TGI): 47.2%
[7]; 75 mg/kg oral BID, day 5
  % Tumor Growth Inhibition (% TGI): 45.9%
[7]; 75 mg/kg oral BID, day 8
  % Tumor Growth Inhibition (% TGI): 46.3%
[7]; 75 mg/kg oral BID, day 10
  % Tumor Growth Inhibition (% TGI): 46.3%
[7]; 75 mg/kg oral BID, day 12
  % Tumor Growth Inhibition (% TGI): 36.8%
[7]; 75 mg/kg oral BID, day 15
  % Tumor Growth Inhibition (% TGI): 35.7%
[7]; 75 mg/kg oral BID
  tumor growth inhibition, mixed effect linear model of the tumor volumes on the last day of study: 60.3%
[7]; 100 mg/kg oral BID, day 3
  % Tumor Growth Inhibition (% TGI): 65.8%
[7]; 100 mg/kg oral BID, day 5
  % Tumor Growth Inhibition (% TGI): 56.2%
[7]; 100 mg/kg oral BID, day 8
  % Tumor Growth Inhibition (% TGI): 57.7%
[7]; 100 mg/kg oral BID, day 10
  % Tumor Growth Inhibition (% TGI): 59.4%
[7]; 100 mg/kg oral BID, day 12
  % Tumor Growth Inhibition (% TGI): 49.3%
[7]; 100 mg/kg oral BID, day 15
  % Tumor Growth Inhibition (% TGI): 52.4%
[7]; 100 mg/kg oral BID
  tumor growth inhibition, mixed effect linear model of the tumor volumes on the last day of study: 71.2%
[7]; 150 mg/kg oral BID, day 3
  % Tumor Growth Inhibition (% TGI): 98.3%
[7]; 150 mg/kg oral BID, day 5
  % Tumor Growth Inhibition (% TGI): 93.1%
[7]; 150 mg/kg oral BID, day 8
  % Tumor Growth Inhibition (% TGI): 89.8%
[7]; 150 mg/kg oral BID, day 10
  % Tumor Growth Inhibition (% TGI): 84.2%
[7]; 150 mg/kg oral BID, day 12
  % Tumor Growth Inhibition (% TGI): 72.9%
[7]; 150 mg/kg oral BID, day 15
  % Tumor Growth Inhibition (% TGI): 74.3%
[7]; 150 mg/kg oral BID
  tumor growth inhibition, mixed effect linear model of the tumor volumes on the last day of study: 85.3%
